From US5466716A, “Liposomal trimethylsphingosine” (The Biomembrane Institute, priority 1994, dated 1995)
“Also recorded” adds a separate entry of the source.

Assays:
BL6 cells = experiment: BL6 lung metastatic deposits in mice; assay type: in vivo
Text: FIGS. 6A-C depict the effect of N,N,N-trimethylsphingosine on lung metastatic deposits after intravenous injection of BL6 cells into mice. Each graph represents the mean and standard deviation of results obtained in 8 animals. In FIG. 6A the open bars depict the total number of lung colony deposits; the stippled bars depict the number of lung colonies with a diameter of greater than 1 mm; and the solid bars depict the number of lung colonies with a diameter of less than 1 mm. Bars 1-3 depict the number of deposits observed 14 days after injection. Bars 4-6 depict the number of lung colony deposits in animals that received BL6 cells and 1 minute later received 0.2 mg of N,N,N-trimethylsphingosine (TMS). […]
In FIG. 6B the number of lung colonies was determined 16 days after treatment, the treatment consisting of varying doses and routes of administration. […]
In FIG. 6C the dose responsiveness of BL6 metastatic potential to TMS is presented. […] Sixteen days after treatment, the mice were sacrificed, lungs opened and the number of colonies in the lungs were counted under a dissecting microscope.
The effectiveness of TMS in vivo is summarized in the graphs comprising FIG. 6. BL6 cells were injected into mice and metastatic deposits in the lung were assessed after various treatments including route and timing of administration.

platelets = experiment: platelet aggregation; assay type: cell-based, human
Method: FIGS. 7A and 7B depict the effect of N,N,N-trimethylsphingosine (TMS) on platelet aggregation. A 0.45 ml aliquot of human platelet suspension (3-5×10^5 platelets per μl of Tyrode's buffer) was incubated with sphingosine or TMS for 2 minutes. Then platelet aggregation was induced by the addition of either γ-thrombin (FIG. 7A) or adenosine diphosphate (ADP) (FIG. 7B) in 0.05 ml. The degree of aggregation was determined in an aggregometer and the data analyzed with an integrated computer (Kyoto Daiichi Kagaku Co. Ltd.).
FIG. 8 depicts further the dose response of platelet aggregation by sphingoid. Aggregation of the platelets was induced with 10 nM γ-thrombin.
Platelets were isolated from platelet-rich plasma (purchased from the Oregon Red Cross, Portland, Oreg. Contaminating erythrocytes were removed by centrifugation (80×g for 10 minutes). Platelets were obtained by centrifugation (300×g for 10 minutes), washed once in Tyrodes's buffer (pH 6.5) containing 22 mM trisodium citrate and 0.35% (w/v) BSA and resuspended in the same buffer to obtain a concentration of 1-2×10^9 platelets/ml. All procedures were performed at room temperature.
A suspension of platelets (3.5×10^8 /ml) in Tyrode's buffer was preincubated with various inhibitor compounds (H-7 is [1-(5-isoquinolinylsulfonyl)-2-methylpiperazine, a synthetic protein kinase-C inhibitor purchased from Seikagaku America Inc., St. Petersburg, Fla.], calphostin-C [a synthetic protein kinase-C inhibitor obtained from Dr. Saitoh, Kyowa Hakko Co., Ltd., Machida, Tokyo, Japan], sphingosine [purchased from Sigma, St. Louis, Mo.] and dimethylsphingosine and trimethylsphingosine [synthesized according to Igarashi et al., Biochem., 28, 6796, 1989]) followed by addition of thrombin or ADP (both purchased from Sigma). Platelet aggregation was evaluated by transmittance change using an aggregometer (Chrono-log Corp., Havertown, Pa.) equipped with a computer analyzer.

HL60 cells = experiment: HL60 cell binding to activated platelets; assay type: cell-based, human; conditions: thrombin- and PMA-stimulated platelets
Method: FIGS. 12A and 12B depict results of representative experiments assessing the degree of HL60 binding to platelets. Platelets were exposed to inhibiting compounds (symbols are the same as in the legend to FIGS. 11A and 11B) and affixed to the wells of a microtiter plate. HL60 cells labelled with tritiated thymidine were introduced into the wells and the amount of bound radioactivity was assessed.
HL60 (a human promylelocytic cell line available from the ATCC under accession number CCL 240) adhesion on resting or activated platelet-coatedsolid phase was evaluated as follows. Each well of a 48-well plate (Costar Scientific, Cambridge, Mass.) was filled with a poly-L-lysine solution (100 μg/ml in PBS) and incubated for 1 hour. Each well then was washed with PBS and then 150 μl of PBS containing 6×10^7 resting or activated platelets were added to each well and the plate was incubated for 1 hour. Plates were centrifuged (300×g for 7 minutes) and incubated a further 30 minutes at room temperature. Bound platelets were fixed by addition of 0.1% (w/v) glutaraldehyde in PBS for 2 minutes at 4° C. Each well was washed with 10 mM glycine in PBS and plates were incubated with 5% (w/v) BSA containing 0.1% (w/v) sodium azide, 10 mM glycine in PBS for 1 hour at room temperature.
After washing with culture medium (RPMI 1640 containing 5% (v/v) FCS), 1×10^6 HL60 cells labeled with [^3 H]thymidine were added to each well. HL60 was maintained in RPMI 1640 medium (purchased from Irvine Scientific, Santa Ana, Calif.) supplemented with 10% FCS (Hyclone, Logan, Utah). (Radiolabeling of HL60 cells used for cell adhesion assays was performed by incubating cells with 2 μCi/ml of [^3 H]thymidine overnight.) After incubation for 45 minutes at room temperature, unbound cells were aspirated and wells were washed once with medium (RPMI 1640 containing 5% (v/v) FCS), bound cells were detached with 0.05% (w/v) trypsin-0.02% (w/v) EDTA (Irvine Scientific) in PBS and the levels of radioactivity in each well were determined in a liquid scintillation counter.

water solubility = assay type: physicochemical; conditions: for appearance of aqueous solution: neutral or physiologic pH
Text: For comparison purposes those same test cells also are exposed to sphingosine and N,N-dimethylsphingosine.

protein kinase-C = conditions: cited from earlier work
[1] = chloride salts and slightly acidic pH

Row | solubility in aqueous solvents (water solubility) | solubility (water solubility; acidic, neutral or basic conditions) | water solubility (water solubility; particularly at physiologic pH) | Molecule | dose responsiveness of lung tumor colonization (BL6 cells; FIG. 6B, 6C) | suppression of lung colonization and tumor development (BL6 cells; irrespective of route or timing, FIG. 6) | inhibition of ATP secretion associated with platelet aggregation (platelets) | inhibition of platelet aggregation (platelets) | ristocetin-induced platelet aggregation following incubation (platelets; exclusion of cytotoxicity on platelets) | inhibition of HL60 cell binding (HL60 cells) | concentration reported to inhibit protein kinase-C (protein kinase-C; in vitro, Tamaoki & Nakano) [µM] | water solubility (water solubility; [1]) | appearance of aqueous solution (water solubility) | PK-C inhibition (protein kinase-C; below 100 μM, Igarashi et al.) | inhibition of thrombin- or ADP-induced platelet aggregation (platelets; thrombin or ADP, compared with TMS)
1 | excellent solubility | stable, clear solutions | highly water soluble | CCCCCCCCCCCCC/C=C/[C@@H](O)[C@H](CO)[N+](C)(C)C [TMS, N,N,N-trimethylsphingosine] | distinct dose responsiveness | effective in suppressing lung colonization and tumor development | inhibited strongly | inhibited strongly; also recorded: inhibited platelet aggregation in a dose-responsive fashion | normal ristocetin-induced aggregation | inhibited strongly | – | – | – | – | –
2 | – | – | – | Calphostin C | – | – | – | – | – | – | 0.05 | – | – | – | –
3 | – | – | less water soluble | CCCCCCCCCCCCC/C=C/[C@@H](O)[C@H](CO)N(C)C [DMS, (4E)-N,N-dimethyl-D-erythro-sphingosine] | – | – | – | – | – | inhibited strongly | – | soluble in water | tend to form opaque suspensions | – | did not inhibit thrombin- or ADP-induced platelet aggregation as well as did TMS

Row | Molecule | solubility in aqueous solvents (water solubility) | solubility (water solubility; acidic, neutral or basic conditions) | water solubility (water solubility; particularly at physiologic pH) | dose responsiveness of lung tumor colonization (BL6 cells; FIG. 6B, 6C) | suppression of lung colonization and tumor development (BL6 cells; irrespective of route or timing, FIG. 6) | inhibition of ATP secretion associated with platelet aggregation (platelets) | inhibition of platelet aggregation (platelets) | ristocetin-induced platelet aggregation following incubation (platelets; exclusion of cytotoxicity on platelets) | inhibition of HL60 cell binding (HL60 cells) | concentration reported to inhibit protein kinase-C (protein kinase-C; in vitro, Tamaoki & Nakano) [µM] | water solubility (water solubility; [1]) | appearance of aqueous solution (water solubility) | PK-C inhibition (protein kinase-C; below 100 μM, Igarashi et al.) | inhibition of thrombin- or ADP-induced platelet aggregation (platelets; thrombin or ADP, compared with TMS)
4 | CCCCCCCCCCCCC/C=C/[C@@H](O)[C@@H](N)CO [SPN, sphingosine] | – | – | less water soluble | – | – | – | – | – | minimally inhibited | – | soluble in water | tend to form opaque suspensions | did not inhibit PK-C | –
